Tests used:
EZH1 = EZH1 (Homo sapiens, UniProt Q92800); assay: AlphaLISA enzyme activity inhibition, EZH1; assay type: biochemical; conditions: for inhibition at 0.005 µM: 5nM test substance; for inhibition at 0.01 µM: 10nM test substance
Outline: (§1)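 EZH1 or EZH2 was mixed with compound at 5 nM or 10 nM final in 20 mM Tris pH 8.0, 0.1% BSA, 0.5 mM DTT, then histone H3 peptide and SAM were added. After 2 h reaction, AlphaLISA acceptor and donor beads detected methylation; inhibition rate was calculated against DMSO control.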

G401 cells = assay: Cancer cell proliferation inhibition (Cell Counting Kit-8), rhabdoid tumor cell line; assay type: cell-based; conditions: 1000 nM, cultured seven to 11 days; for inhibition at 1 µM: Homo sapiens, G-401, 264 h, read-out: % inhibition rate G401
Outline: (§2)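 Cells grown in RPMI1640, McCoy's 5a, L-15 or DMEM with 10% FBS, seeded at 100 to 1,000 cells/well and treated with test substance at 1000 nM for 7 to 11 days. Viability read by CCK-8; % inhibition = {1−(test/control)} × 100.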

EZH2 = EZH2 (Homo sapiens, UniProt Q15910); assay: AlphaLISA enzyme activity inhibition, EZH2; assay type: biochemical; conditions: for inhibition at 0.005 µM: 5nM test substance; for inhibition at 0.01 µM: 10nM test substance
EZH2, sequence (Q15910 whole entry, species assumed): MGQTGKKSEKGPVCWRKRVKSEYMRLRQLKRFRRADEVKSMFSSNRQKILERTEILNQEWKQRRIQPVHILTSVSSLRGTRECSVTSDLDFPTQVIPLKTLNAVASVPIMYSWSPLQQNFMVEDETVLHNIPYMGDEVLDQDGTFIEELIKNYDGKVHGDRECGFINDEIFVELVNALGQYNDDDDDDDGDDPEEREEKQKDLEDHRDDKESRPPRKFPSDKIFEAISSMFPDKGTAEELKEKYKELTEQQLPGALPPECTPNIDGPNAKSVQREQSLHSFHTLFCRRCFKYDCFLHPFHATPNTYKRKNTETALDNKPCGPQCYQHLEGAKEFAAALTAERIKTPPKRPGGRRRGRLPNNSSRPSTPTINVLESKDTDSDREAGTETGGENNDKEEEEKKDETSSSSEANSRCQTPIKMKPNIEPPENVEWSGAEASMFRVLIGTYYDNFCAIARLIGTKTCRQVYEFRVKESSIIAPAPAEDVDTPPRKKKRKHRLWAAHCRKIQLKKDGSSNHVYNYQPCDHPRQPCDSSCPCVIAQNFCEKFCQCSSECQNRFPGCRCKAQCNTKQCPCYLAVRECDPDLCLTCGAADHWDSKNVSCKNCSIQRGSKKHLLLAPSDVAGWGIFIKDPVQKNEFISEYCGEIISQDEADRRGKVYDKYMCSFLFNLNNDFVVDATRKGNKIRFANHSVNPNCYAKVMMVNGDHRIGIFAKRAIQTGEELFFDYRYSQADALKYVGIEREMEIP
EZH2, sequence (O75530 whole entry partner, species assumed): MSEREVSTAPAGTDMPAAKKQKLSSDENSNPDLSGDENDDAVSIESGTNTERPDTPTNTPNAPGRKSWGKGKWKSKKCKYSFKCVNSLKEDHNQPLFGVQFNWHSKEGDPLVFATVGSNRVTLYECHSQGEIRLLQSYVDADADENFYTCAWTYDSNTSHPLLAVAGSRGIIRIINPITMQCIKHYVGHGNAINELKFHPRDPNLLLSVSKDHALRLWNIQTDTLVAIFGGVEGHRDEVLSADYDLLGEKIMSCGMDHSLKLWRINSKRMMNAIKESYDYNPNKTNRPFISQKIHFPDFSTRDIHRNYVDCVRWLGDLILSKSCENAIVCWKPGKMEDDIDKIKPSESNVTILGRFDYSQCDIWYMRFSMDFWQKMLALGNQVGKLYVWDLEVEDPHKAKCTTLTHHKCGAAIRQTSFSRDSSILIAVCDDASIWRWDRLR
EZH2, sequence (Q15022 whole entry partner, species assumed): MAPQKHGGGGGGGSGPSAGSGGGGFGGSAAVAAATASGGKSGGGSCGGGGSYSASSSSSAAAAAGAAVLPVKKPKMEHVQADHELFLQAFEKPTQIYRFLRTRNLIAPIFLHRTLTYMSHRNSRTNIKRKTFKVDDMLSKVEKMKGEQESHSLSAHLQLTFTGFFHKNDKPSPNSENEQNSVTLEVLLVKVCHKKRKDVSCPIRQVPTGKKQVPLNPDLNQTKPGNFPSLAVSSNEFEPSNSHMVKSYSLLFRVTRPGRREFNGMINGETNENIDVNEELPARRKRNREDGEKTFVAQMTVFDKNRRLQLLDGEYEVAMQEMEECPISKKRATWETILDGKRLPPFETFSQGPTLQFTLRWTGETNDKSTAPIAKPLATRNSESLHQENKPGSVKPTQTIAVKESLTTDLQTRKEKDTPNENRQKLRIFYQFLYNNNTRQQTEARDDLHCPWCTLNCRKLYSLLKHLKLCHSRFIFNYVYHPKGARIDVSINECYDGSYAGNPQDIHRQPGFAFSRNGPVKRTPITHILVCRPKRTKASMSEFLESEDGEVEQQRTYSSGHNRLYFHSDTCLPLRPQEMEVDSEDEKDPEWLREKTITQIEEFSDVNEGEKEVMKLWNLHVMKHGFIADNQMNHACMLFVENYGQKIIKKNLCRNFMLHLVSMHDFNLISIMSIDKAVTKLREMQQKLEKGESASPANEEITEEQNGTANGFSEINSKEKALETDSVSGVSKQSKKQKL
Outline: as §1

MKN-45 cells = assay: Cancer cell proliferation inhibition (Cell Counting Kit-8), gastric cancer cell line; assay type: cell-based; conditions: Homo sapiens, MKN-45, 264 h, 1000 nM, cultured seven to 11 days; read-out: % inhibition rate MKN -45
Outline: as §2

MIA-PaCa-2 cells = assay: Cancer cell proliferation inhibition (Cell Counting Kit-8), pancreatic cancer cell line; assay type: cell-based; conditions: Homo sapiens, MIA PaCa-2, 264 h, 1000 nM, cultured seven to 11 days; read-out: % inhibition rate MIA-Paca2
Outline: (§3)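 Single-concentration growth test: compound at 1000 nM was applied to cells seeded at 100 to 1,000 per well and cultured seven to 11 days. Proliferation was then quantified with Cell Counting Kit-8, and percent inhibition was taken relative to control wells.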

NCI-H1299 cells = assay: Cancer cell proliferation inhibition (Cell Counting Kit-8), lung cancer cell line; assay type: cell-based; conditions: Homo sapiens, NCI-H1299, 264 h, 1000 nM, cultured seven to 11 days; read-out: % inhibition rate NCI-H129 9
Outline: as §3

Lovo cells = assay: Cancer cell proliferation inhibition (Cell Counting Kit-8), colorectal cancer cell line; assay type: cell-based; conditions: 1000 nM, cultured seven to 11 days; for inhibition at 1 µM: Homo sapiens, LoVo, 264 h, read-out: % inhibition rate LoVo
Outline: as §3

SW-13 cells = assay: Cancer cell proliferation inhibition (Cell Counting Kit-8), adrenal cancer cell line; assay type: cell-based; conditions: Homo sapiens, SW13, 264 h, 1000 nM, cultured seven to 11 days; read-out: % inhibition rate SW-13
Outline: as §3

EZH1, sequence (Q92800 whole entry, species assumed): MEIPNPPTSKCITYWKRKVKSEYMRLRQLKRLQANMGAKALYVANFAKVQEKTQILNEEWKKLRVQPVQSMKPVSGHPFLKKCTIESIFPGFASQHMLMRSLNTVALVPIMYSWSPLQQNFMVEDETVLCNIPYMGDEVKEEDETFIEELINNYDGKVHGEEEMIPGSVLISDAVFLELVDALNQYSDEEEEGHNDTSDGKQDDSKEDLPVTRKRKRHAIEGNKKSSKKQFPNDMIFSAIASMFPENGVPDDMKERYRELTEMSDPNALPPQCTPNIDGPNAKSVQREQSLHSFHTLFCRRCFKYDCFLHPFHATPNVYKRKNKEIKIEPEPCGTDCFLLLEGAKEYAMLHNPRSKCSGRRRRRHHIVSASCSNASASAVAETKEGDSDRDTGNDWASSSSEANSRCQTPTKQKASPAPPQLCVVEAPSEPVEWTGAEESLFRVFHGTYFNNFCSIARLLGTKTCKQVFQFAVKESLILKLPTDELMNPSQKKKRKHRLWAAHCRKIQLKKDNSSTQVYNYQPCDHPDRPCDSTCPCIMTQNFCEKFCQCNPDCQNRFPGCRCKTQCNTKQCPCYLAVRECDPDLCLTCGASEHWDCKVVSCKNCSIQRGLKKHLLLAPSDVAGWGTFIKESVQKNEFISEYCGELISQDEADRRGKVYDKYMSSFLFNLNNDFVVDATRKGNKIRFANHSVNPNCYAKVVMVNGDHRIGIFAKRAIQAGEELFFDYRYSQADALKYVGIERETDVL
EZH1, sequence (O75530 whole entry partner, species assumed): as the sequence (O75530 whole entry partner, species assumed) above
EZH1, sequence (Q15022 whole entry partner, species assumed): as the sequence (Q15022 whole entry partner, species assumed) above

| inhibition at 0.005 µM (EZH1) [%] | inhibition at 0.005 µM (EZH2) [%] | inhibition at 0.01 µM (EZH1) [%] | inhibition at 0.01 µM (EZH2) [%] | Structure (SMILES) | inhibition at 1 µM (G401 cells) [%] | inhibition at 1 µM (MKN-45 cells) [%] | inhibition at 1 µM (MIA-PaCa-2 cells) [%] | inhibition at 1 µM (NCI-H1299 cells) [%] | inhibition at 1 µM (Lovo cells) [%] | inhibition at 1 µM (SW-13 cells) [%] | % inhibition rate LoVo (Lovo cells; 1 µM) | % inhibition rate G401 (G401 cells; 1 µM) |
| --- | --- | --- | --- | --- | --- | --- | --- | --- | --- | --- | --- | --- |
| 82.4 | 97.6 |  |  | COCCN(C)[C@H]1CC[C@H](C2(C)Oc3c(-c4cnc(N5C[C@@H](C)O[C@@H](C)C5)nc4)cc(C(=O)NCc4c(SC)cc(C)[nH]c4=O)c(C)c3O2)CC1 (stereo partly drawn) [Compound 25, 7-(2-((2S,6R)-2,6-dimethylmorpholino)pyrimidin-5-yl)-2-(trans-4-((2-methoxyethyl)(methyl)amino)cyclohexyl)-2,4-dimethyl-N-((6-methyl-4-(methylthio)-2-oxo-1,2-dihydropyridin-3-yl)methyl)benzo[d][1,3]dioxole-5-carboxamide] | 30 to 70 | ≤ 30 | ≤ 30 | ≤ 30 | ≥ 70 | 30 to 70 |  |  |
| 78.8 | 99.2 | 92.4 | 99.5 | CCN1CCC(C2(C)Oc3c(-c4ccc(N5C[C@@H](C)O[C@@H](C)C5)nc4)cc(C(=O)NCc4c(SC)cc(C)[nH]c4=O)c(C)c3O2)CC1 (single isomer, unassigned) [Compound 49] | 30 to 70 | ≤ 30 | ≤ 30 | 30 to 70 |  | 30 to 70 | +++ (+++: ≥70%) |  |
| 81.4 | 96 |  |  | CSc1cc(C)[nH]c(=O)c1CNC(=O)c1cc(-c2ccc3c(ccn3C)c2)c2c(c1C)OC(C)([C@H]1CC[C@H](N(C)C)CC1)O2 (relative stereo) [Compound 7, 2-(trans-4-(dimethylamino)cyclohexyl)-2,4-dimethyl-7-(1-methyl-1H-indol-5-yl)-N-((6-methyl-4-(methylthio)-2-oxo-1,2-dihydropyridin-3-yl)methyl)benzo[d][1,3]dioxole-5-carboxamide] | 30 to 70 | 30 to 70 | ≤ 30 | ≤ 30 | 30 to 70 | 30 to 70 |  |  |
| 91.6 | 98.3 |  |  | CSc1cc(C)[nH]c(=O)c1CNC(=O)c1cc(-c2ccc(N3C[C@@H](C)O[C@@H](C)C3)nc2)c2c(c1C)OC(C)([C@H]1CC[C@H](N(C)C[C@H](C)O)CC1)O2 (stereo partly drawn) [Compound 29, 7-(6-((2S,6R)-2,6-dimethylmorpholino)pyridin-3-yl)-2-(trans-4-(((S)-2-hydroxypropyl)(methyl)amino)cyclohexyl)-2,4-dimethyl-N-((6-methyl-4-(methylthio)-2-oxo-1,2-dihydropyridin-3-yl)methyl)benzo[d][1,3]dioxole-5-carboxamide] | 30 to 70 | ≤ 30 | ≤ 30 | ≤ 30 | ≥ 70 | 30 to 70 |  |  |
| 20.6 | 11.3 |  |  | CSc1cc(C)[nH]c(=O)c1CNC(=O)c1cc(-c2cnc(N3CCCCC3)nc2)c2c(c1C)OC(C)([C@H]1CC[C@H](N(C)CC(F)(F)F)CC1)O2 (relative stereo) [Compound 21, 2,4-dimethyl-2-(trans-4-(methyl(2,2,2-trifluoroethyl)amino)cyclohexyl)-N-((6-methyl-4-(methylthio)-2-oxo-1,2-dihydropyridin-3-yl)methyl)-7-(2-(piperidin-1-yl)pyrimidin-5-yl)benzo[d][1,3]dioxole-5-carboxamide] | ≤ 30 | ≤ 30 | ≤ 30 | ≤ 30 | ≥ 70 | ≤ 30 |  |  |
| 80.5 | 99.2 |  |  | COc1ccc(F)cc1-c1cc(C(=O)NCc2c(SC)cc(C)[nH]c2=O)c(C)c2c1OC(C)([C@H]1CC[C@H](N(C)C)CC1)O2 (relative stereo) [Compound 12, 2-(trans-4-(dimethylamino)cyclohexyl)-7-(5-fluoro-2-methoxyphenyl)-2,4-dimethyl-N-((6-methyl-4-(methylthio)-2-oxo-1,2-dihydropyridin-3-yl)methyl)benzo[d][1,3]dioxole-5-carboxamide] | 30 to 70 | ≤ 30 | ≤ 30 | ≤ 30 | 30 to 70 | 30 to 70 |  |  |
| 56.4 | 87.3 | 78.9 | 99.7 | CSc1cc(C)[nH]c(=O)c1CNC(=O)c1cc(-c2cnc(N3CCOCC3)nc2)c2c(c1C)OC(C)(C1CCN(CC(F)(F)F)CC1)O2 (stereo not shown) [Compound 68, 2,4-dimethyl-N-((6-methyl-4-(methylthio)-2-oxo-1,2-dihydropyridin-3-yl)methyl)-7-(2-morpholinopyrimidin-5-yl)-2-(1-(2,2,2-trifluoro)piperidin-4-yl)benzo[d][1,3]dioxole-5-carboxamide] | ≥ 70 | 30 to 70 | ≤ 30 | ≤ 30 | ≥ 70 | 30 to 70 |  |  |
| 53.7 | 97.6 |  |  | CSc1cc(C)[nH]c(=O)c1CNC(=O)c1cc(-c2c(C)noc2C)c2c(c1C)OC(C)([C@H]1CC[C@H](N(C)C)CC1)O2 (relative stereo) [Compound 13, 2-(trans-4-(dimethylamino)cyclohexyl)-7-(3,5-dimethylisoxazol-4-yl)-2,4-dimethyl-N-((6-methyl-4-(methylthio)-2-oxo-1,2-dihydropyridin-3-yl)methyl)benzo[d][1,3]dioxole-5-carboxamide] | 30 to 70 | ≤ 30 | ≤ 30 | ≤ 30 | 30 to 70 | ≤ 30 |  |  |
| 20.2 | 60.1 | 16.2 | 82.3 | CSc1cc(C)[nH]c(=O)c1CNC(=O)c1cc(-c2ccc(N3CCCCC3)cc2)c2c(c1C)OC(C)(C1CCN(CC(F)(F)F)CC1)O2 (stereo not shown) [Compound 90, 2,4-dimethyl-N-((6-methyl-4-(methylthio)-2-oxo-1,2-dihydropyridin-3-yl)methyl)-7-(4-(piperidin-1-yl)phenyl)-2-(1-(2,2,2-trifluoroethyl)piperidin-4-yl)benzo[d][1,3]dioxole-5-carboxamide] | 30 to 70 | ≤ 30 | ≤ 30 | ≤ 30 | ≥ 70 | ≤ 30 |  |  |
| 71.9 | 98.2 | 87.9 | 99.6 | CSc1cc(C)[nH]c(=O)c1CNC(=O)c1cc(-c2cnc(N3CCOCC3)nc2)c2c(c1C)OC(C)(C1CCN(CC(F)(F)F)CC1)O2 (single isomer, unassigned) [Compound 69, 2,4-dimethyl-N-((6-methyl-4-(methylthio)-2-oxo-1,2-dihydropyridin-3-yl)methyl)-7-(2-morpholinopyrimidine-5-yl)-2-(1-(2,2,2-trifluoro)piperidin-4-yl)benzo [d][1,3]dioxole-5-carboxamide] |  | 30 to 70 | ≤ 30 | ≤ 30 | ≥ 70 | 30 to 70 |  | +++ (+++: ≥70%) |
| 20.5 | 62 |  |  | CSc1cc(C)[nH]c(=O)c1CNC(=O)c1cc(-c2cnc(N3CCCCC3)nc2)c2c(c1C)OC(C)(C1CCN(CC(F)(F)F)CC1)O2 (stereo not shown) [Compound 39, 2,4-dimethyl-N-((6-methyl-4-(methylthio)-2-oxo-1,2-dihydropyridin-3-yl)methyl)-7-(2-(piperidin-1-yl)pyrimidin-5-yl)-2-(1-(2,2,2-trifluoroethyl)piperidin-4-yl)benzo[d][1,3]dioxole-5-carboxamide] | 30 to 70 | ≤ 30 | ≤ 30 | ≤ 30 | ≥ 70 | ≤ 30 |  |  |
| 25.9 | 74.7 | 20.5 | 82.3 | CSc1cc(C)[nH]c(=O)c1CNC(=O)c1cc(-c2ccc3occc3c2)c2c(c1C)OC(C)(C1CCN(CC(F)F)CC1)O2 (stereo not shown) [Compound 97, 7-(benzofuran-5-yl)-2-(1-(2,2-difluoroethyl)piperidin-4-yl)-2,4-dimethyl-N-((6-methyl-4-(methylthio)-2-oxo-1,2-dihydropyridin-3-yl)methyl)benzo[d][1,3]dioxole-5-carboxamide] | 30 to 70 | 30 to 70 | ≤ 30 | ≤ 30 | ≥ 70 | ≤ 30 |  |  |

Reference: patent EP4740948A1 (Dong Wha Pharm. Co., Ltd., priority 2023, dated 2025)
